We go through four molecules from patent US4323567A, “Arylmalonamido-1-oxadethiacephalosporins” (priority 1976, dated 1982).

Holding throughout (test): Minimal inhibitory concentration, nutrient agar plate
The subject of one test is Escherichia coli H. In kind it is cell-based. The settings on record: inoculum size 10^8, pH 7.0, read-out: Minimal inhibitory concentration.
The next test relates to E. coli JC-2. In kind it is cell-based. The note with it: Escherichia coli, JC2, inoculum size 10^8, pH 7.0, read-out: Minimal inhibitory concentration.
Another test has as its system E. coli 377. In kind it is cell-based, Escherichia coli. The settings on record: Escherichia coli, 377, inoculum size 10^8, pH 7.0, read-out: Minimal inhibitory concentration.
In another test the test system is E. coli 73. In kind it is cell-based, Escherichia coli. The note with it: Escherichia coli, 73, inoculum size 10^8, pH 7.0, read-out: Minimal inhibitory concentration.
Test [1] relates to Serratia marsescens 13880. In kind it is cell-based. The settings on record: Serratia, 13880, inoculum size 10^8, pH 7.0, read-out: Minimal inhibitory concentration.
The subject of another test is Klebsiella pneumoniae. In kind it is cell-based. The note with it: inoculum size 10^8, pH 7.0, read-out: Minimal inhibitory concentration.
For another test, the system named is Klebsiella sp. 363. In kind it is cell-based. The settings on record: inoculum size 10^8, pH 7.0, read-out: Minimal inhibitory concentration.
In a further test the test system is Enterobacter cloacae 233. In kind it is cell-based. The settings on record: Enterobacter cloacae, 233, inoculum size 10^8, pH 7.0, read-out: Minimal inhibitory concentration.
Another test relates to Proteus mirabilis PR-4. In kind it is cell-based. The note with it: inoculum size 10^8, pH 7.0, read-out: Minimal inhibitory concentration.
In a further test the test system is P. morganii No. 9. In kind it is cell-based, Proteus morganii. The note with it: Morganella morganii, NO.9, inoculum size 10^8, pH 7.0, read-out: Minimal inhibitory concentration.
The test system of another test is P. vulgaris No. 3. In kind it is cell-based. The settings on record: Proteus vulgaris, NO.3, inoculum size 10^8, pH 7.0, read-out: Minimal inhibitory concentration.
For the next test, the system named is P. vulgaris CN-329. In kind it is cell-based. The note with it: Proteus vulgaris, CN329, inoculum size 10^8, pH 7.0, read-out: Minimal inhibitory concentration.
In test [2] the test system is Pseudomonas aeruginosa Denken. In kind it is cell-based. The note with it: inoculum size 10^8, pH 7.0, read-out: Minimal inhibitory concentration.
In another test the test system is Ps. aeruginosa 25619. In kind it is cell-based, Pseudomonas aeruginosa. The note with it: Pseudomonas aeruginosa, 25619, inoculum size 10^8, pH 7.0, read-out: Minimal inhibitory concentration.
The test system of the next test is Ps. aeruginosa 24. In kind it is cell-based, Pseudomonas aeruginosa. The note with it: Pseudomonas aeruginosa, 24, inoculum size 10^8, pH 7.0, read-out: Minimal inhibitory concentration.
The mark [3] stands for this setting: ester, in the presence of 5% horse serum, sodium salt.

Where two headings read alike, the source gives them in different places.

As for `Cn1nnnc1SCC1=C(C(=O)O)N2C(=O)[C@@H](NC(=O)C(C(=O)O)c3ccc(O)cc3)[C@H]2OC1` (stereo partly drawn) [Example III-6, 7β-(α-p-hydroxyphenyl-α-carboxyacetamido)-3-(1-methyltetrazol-5-yl)thiomethyl-1-oxadethia-3-cephem-4-carboxylic acid], the MIC in the test on Escherichia coli H (as sodium salt) is 0.2 µg/mL; in the test on E. coli JC-2 (as sodium salt) it was 0.39 µg/mL; in the test on E. coli 377 (as sodium salt) it was 0.39 µg/mL; in the test with E. coli 73 (as sodium salt), > 100 µg/mL; in [1] (as sodium salt) it was 0.78 µg/mL; in the test on Klebsiella pneumoniae (as sodium salt), 0.78 µg/mL. Further, the MIC in the test on Klebsiella sp. 363 (SP.363, as sodium salt) is > 100 µg/mL; in the test with Enterobacter cloacae 233 (as sodium salt), 0.78 µg/mL; in the test on Proteus mirabilis PR-4 (PR4, as sodium salt), 0.78 µg/mL; with P. morganii No. 9 (as sodium salt) it was 0.78 µg/mL; in the test on P. vulgaris No. 3 (as sodium salt), > 100 µg/mL; in the test with P. vulgaris CN-329 (as sodium salt) it was > 100 µg/mL. Further, the MIC was > 100 µg/mL in [2] (as sodium salt), 6.25 µg/mL in the test with Ps. aeruginosa 25619 (as sodium salt) and > 100 µg/mL with Ps. aeruginosa 24 (as sodium salt).

As to `Cc1nnc(SCC2=C(C(=O)O)N3C(=O)[C@@H](NC(=O)Cn4cnnn4)[C@H]3SC2)s1` [Cefazolin, reference compound], the MIC in the test with Escherichia coli H (as sodium salt) was 1.6 µg/mL; with E. coli JC-2 (as sodium salt), 3.2 µg/mL; in the test on E. coli 377 (as sodium salt) it was 100 µg/mL; in the test with E. coli 73 (as sodium salt), > 100 µg/mL; in [1] (as sodium salt) it was > 100 µg/mL; with Klebsiella pneumoniae (as sodium salt), 3.2 µg/mL. The MIC with Klebsiella sp. 363 (SP.363, as sodium salt) is > 100 µg/mL; in the test with Enterobacter cloacae 233 (as sodium salt), > 100 µg/mL; in the test with Proteus mirabilis PR-4 (PR4, as sodium salt), 6.2 µg/mL; with P. morganii No. 9 (as sodium salt), > 100 µg/mL; in the test on P. vulgaris No. 3 (as sodium salt), > 100 µg/mL; in the test on P. vulgaris CN-329 (as sodium salt) it was > 100 µg/mL. For the same molecule, the MIC (in test [2] (as sodium salt); in the test with Ps. aeruginosa 25619 (as sodium salt); in the test with Ps. aeruginosa 24 (as sodium salt)) was > 100 µg/mL in each case.

Consider `CO[C@@]1(NC(=O)C(C(=O)Oc2ccc3c(c2)CCC3)c2ccccc2)C(=O)N2C(C(=O)O)=C(CSc3nnnn3C)CO[C@@H]21` (stereo partly drawn) [III-24, 7β-[α-(indan-5-yl)oxycarbonyl-α-phenylacetamido]-7α-methoxy-3-(1-methyltetrazol-5-yl)thiomethyl-1-oxadethia-3-cephem-4-carboxylic acid], for which the MIC in the test on Escherichia coli H (setting [3]) was 0.025 µg/mL; in the test on E. coli JC-2 (setting [3]), 0.01 µg/mL; in the test with E. coli 377 (setting [3]), 0.78 µg/mL; in the test on E. coli 73 (setting [3]), 0.39 µg/mL; in [1] (setting [3]), 0.78 µg/mL; in the test with Klebsiella pneumoniae (setting [3]), 0.1 µg/mL. The MIC in the test on Klebsiella sp. 363 (SP.363, ester, in the presence of 5% horse serum, sodium salt) stood at 0.05 µg/mL; with Enterobacter cloacae 233 (setting [3]), 0.2 µg/mL; in the test with Proteus mirabilis PR-4 (PR4, ester, in the presence of 5% horse serum, sodium salt), 0.1 µg/mL; in the test with P. morganii No. 9 (setting [3]) it was 0.2 µg/mL; with P. vulgaris No. 3 (setting [3]), 0.39 µg/mL; with P. vulgaris CN-329 (setting [3]) it was 0.1 µg/mL. Moreover, the MIC in test [2] (setting [3]) amounted to 100 µg/mL; with Ps. aeruginosa 25619 (setting [3]) it was 12.5 µg/mL; in the test on Ps. aeruginosa 24 (setting [3]), 50 µg/mL.

For `CO[C@@]1(NC(=O)C(C(=O)O)c2ccc(OC(N)=O)cc2)C(=O)N2C(C(=O)O)=C(CSc3nnnn3C)CO[C@@H]21` (stereo partly drawn) [Example III-25, 7β-(α-p-carbamoyloxyphenyl-α-carboxyacetamido)-7α-methoxy-3-(1-methyltetrazol-5-yl)thiomethyl-1-oxadethia-3-cephem-4-carboxylic acid], the MIC was 0.1 µg/mL in the test with Escherichia coli H (as sodium salt); 0.39 µg/mL in the test on E. coli JC-2 (as sodium salt); 0.78 µg/mL in the test on E. coli 377 (as sodium salt); 1.56 µg/mL in the test on E. coli 73 (as sodium salt); 1.56 µg/mL in test [1] (as sodium salt); 0.39 µg/mL in the test with Klebsiella pneumoniae (as sodium salt). Further, the MIC with Klebsiella sp. 363 (SP.363, as sodium salt) was 0.39 µg/mL; with Enterobacter cloacae 233 (as sodium salt), 0.78 µg/mL; in the test on Proteus mirabilis PR-4 (PR4, as sodium salt) it was 0.2 µg/mL; with P. morganii No. 9 (as sodium salt) it was 0.2 µg/mL; in the test on P. vulgaris No. 3 (as sodium salt) it was 0.39 µg/mL; in the test on P. vulgaris CN-329 (as sodium salt), 0.2 µg/mL. In addition, the MIC is > 100 µg/mL in test [2] (as sodium salt), 25 µg/mL with Ps. aeruginosa 25619 (as sodium salt) and 100 µg/mL with Ps. aeruginosa 24 (as sodium salt).
